ChEMBL document CHEMBL1201862, “PubChem BioAssay data set” (2004)
Values joined by “and” are separate entries in the source; they are usually repeats but may differ in a detail not shown here. Identical values can stand only once.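 Briefly, cells in 96-well plates were exposed to five compound concentrations for 48 h, and endpoints were estimated by linear interpolation. GI50: concentration for 50% inhibition of growth.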 Active and inactive are the calls of the source. Cut-off read from the data, not from the text of the source: active = GI50 up to about 1.1 µM and inactive = higher.

Assays:
Experiment in all cases: inhibition of tumour cell growth, NCI panel, 48 h
Hs-578T = tested on: Hs-578T
HOP-18 = tested on: HOP-18
SNB-78 = tested on: SNB-78
XF498 = tested on: XF498
M19-MEL = tested on: M19-MEL
LXFL 529 = tested on: LXFL 529
DMS-114 = tested on: DMS-114
DMS-273 = tested on: DMS-273
RXF 631 = tested on: RXF 631

| SMILES | GI50 (Hs-578T) | GI50 (SNB-78) | GI50 (M19-MEL) | GI50 (LXFL 529) | GI50 (DMS-114) | also measured |
| --- | --- | --- | --- | --- | --- | --- |
| Oc1ccccc1C(c1cc2c(cc1O)OCO2)N1CCOCC1 (stereo not given) | 19.5 µM (inactive) |  |  |  |  |  |
| CC1(C)CCCC2(C)C3C(O)CC2(C)C(O)C31 (stereo not given) |  | > 100 µM (inactive) | > 100 µM (inactive) | > 100 µM (inactive) | > 100 µM (inactive) | GI50 (HOP-18): > 100 µM (inactive); GI50 (XF498): > 100 µM (inactive) |
| CCOC(=O)Nc1sc2c(c1C#N)CCCC2 | 78.7 µM (inactive) |  |  |  |  |  |
| O=C1NC2c3c(I)sc(I)c3C(=O)C2O1 (stereo not given) | 13.5 µM (inactive) |  |  |  |  |  |
| O=C(O)C12C3CCC(O3)C1(C(=O)O)C1CCC2O1 (stereo not given) | > 100 µM (inactive) and 98.2 µM (inactive) |  |  |  |  |  |
| Cc1ccc(S(=O)(=O)N2CCSCCSCCSCCSCC2)cc1 | > 23.3 µM (inactive) |  |  |  |  |  |
| Cc1ccc2c(c1)S(=O)(=O)c1ccc3ccccc3c1N2 | > 100 µM (inactive) |  |  |  |  |  |
| O=C(Nc1cc(Cl)c(Cl)cc1Cl)C(=O)C(C(=O)c1ccc(Cl)c(Cl)c1)C1OC(=O)c2ccccc21 (stereo not given) |  | 31.8 µM (inactive) | 17.6 µM (inactive) | 10.9 µM (inactive) | 13.7 µM (inactive) | GI50 (DMS-273): 16.9 µM (inactive) |
| C1=CC2=CC=CC3c4nc5ccc6ccccc6c5nc4C(=C1)C23 (stereo not given) | > 100 µM (inactive) |  |  |  |  |  |
| COc1cc2c(c(O)c1OC)C(=O)[C@@H]1CCC(=O)N1C2 | > 100 µM (inactive) |  |  |  |  |  |
| O=C1COc2ccc([N+](=O)[O-])cc2C(=O)C1 | > 10 µM (inactive) |  |  |  |  |  |
| COc1ccc(OC)c(C2Cc3cnc4nc(N)nc(N)c4c3C2)c1 (stereo not given) | 30.6 µM (inactive) |  |  |  |  |  |
| O=C1C(=Cc2c(O)cc(O)cc2O)C(=O)c2ccccc21 |  | 23.8 µM (inactive) | > 38.5 µM (inactive) | > 43.5 µM (inactive) | > 100 µM (inactive) | GI50 (HOP-18): 27.4 µM (inactive); GI50 (DMS-273): > 100 µM (inactive) |
| CC1=CC2C3(C)C(C)(C(C)=CP3(=O)c3c(C(C)C)cc(C(C)C)cc3C(C)C)C1P2(=O)c1c(C(C)C)cc(C(C)C)cc1C(C)C (stereo not given) | 2.28 µM (inactive) |  |  |  |  |  |
| N#C/C(=C1\OC(=N)C(c2ccccc2)C1=O)c1ccccc1 (stereo not given) |  | > 77.1 µM (inactive) | 24 µM (inactive) | 17.8 µM (inactive) | 29.5 µM (inactive) | GI50 (HOP-18): 28.6 µM (inactive); GI50 (DMS-273): 49.9 µM (inactive); GI50 (XF498): 16.9 µM (inactive) |
| COC1/C=C/C(C)C(OC)CC(O)/C=C/C(C)C(C(C)C(OC)C(C)CCC(=O)C(C)C(C/C=C/N(C)C=O)OC)OC(=O)/C=C/C=C(\C)CC(OC)CC2=CC(=O)O[C@@H](C(C)C(OC)C1)[C@H]2O (stereo not given in full) | 0.0809 µM (active) |  |  |  |  |  |
| O=C(O)C1C(C(=O)O)C23CC2(C(=O)O)C2(C(=O)O)CCC3=C3CCCC312 (stereo not given) | 2.67 µM (inactive) |  |  |  |  |  |
| COC(=O)c1c(O)ccc2c1c1c(n2CCc2ccc(OC)c(OC)c2)C(=O)c2ccccc2C1=O | 10.9 µM (inactive) |  |  |  |  |  |
| COc1ccc(NC(=O)CC/C(CC(=O)C(C)(C)C)=N\NC(=O)C(N)=O)cc1 |  |  | > 100 µM (inactive) | 79.4 µM (inactive) | > 100 µM (inactive) |  |
| N#CC(=C1CCN(CCCC(=O)c2ccc(F)cc2)CC1)c1ccccc1 | > 100 µM (inactive) |  |  |  |  |  |
| N#C/C(=C/c1ccc2c(c1)OCO2)C(=O)c1ccccc1 |  | > 100 µM (inactive) | > 100 µM (inactive) | > 100 µM (inactive) |  | GI50 (HOP-18): > 100 µM (inactive); GI50 (XF498): > 100 µM (inactive) |
| Cc1ccc(S(=O)(=O)N/N=C(/CC(=O)c2c(C)[n+]([O-])c3ccccc3[n+]2[O-])C(=O)Nc2ccc(C)c(C)c2)cc1 |  | > 100 µM (inactive) | 17.9 µM (inactive) | > 100 µM (inactive) | 19.6 µM (inactive) | GI50 (HOP-18): > 100 µM (inactive); GI50 (DMS-273): 44.8 µM (inactive); GI50 (RXF 631): > 100 µM (inactive) |
| O=C1C=CC(=O)c2ccc(=O)ccc21 | 36.6 µM (inactive) | 25.9 µM (inactive) | 7.55 µM (inactive) | 2.54 µM (inactive) | 9.16 µM (inactive) | GI50 (HOP-18): 19.4 µM (inactive); GI50 (DMS-273): 25.5 µM (inactive); GI50 (RXF 631): 14.4 µM (inactive) |
| CC(=O)OC[C@H]1CN(OC(C)=O)C[C@@H](n2cc(C)c(=O)[nH]c2=O)O1 | > 100 µM (inactive) |  |  |  |  |  |
| O=C1c2ccccc2C2(O)N(c3ccccc3)C(=S)N(c3ccccc3)C12O (stereo not given) |  | > 100 µM (inactive) | > 100 µM (inactive) | > 100 µM (inactive) | > 100 µM (inactive) | GI50 (HOP-18): > 100 µM (inactive); GI50 (DMS-273): > 100 µM (inactive); GI50 (RXF 631): > 100 µM (inactive) |
| O=C1CN(c2ccccc2)C(=O)CN1CCN1CC(=O)N(c2ccccc2)CC1=O | > 100 µM (inactive) |  |  |  |  |  |
| [O-][n+]1nc(N2CCOCC2)nc2ccccc21 | > 100 µM (inactive) |  |  |  |  |  |
| Cc1ccccc1/C=C/C(=O)c1ccccc1 |  | 19.3 µM (inactive) | 25 µM (inactive) | 21.6 µM (inactive) | 20.9 µM (inactive) | GI50 (DMS-273): 25.8 µM (inactive); GI50 (XF498): 17.1 µM (inactive); GI50 (RXF 631): 19.4 µM (inactive) |
| COc1ccccc1NC(=O)C1=C(C)NC(C)=C(C(=O)Nc2ccccc2OC)C1C1=CC=COC1 |  | 23.3 µM (inactive) | 8.97 µM (inactive) | 11.1 µM (inactive) | 7.24 µM (inactive) | GI50 (HOP-18): 28.5 µM (inactive); GI50 (DMS-273): 6.81 µM (inactive) |
